From publication PMC8921065, “Combination of terbium-161 with somatostatin receptor antagonists—a potential paradigm shift for the treatment of neuroendocrine neoplasms” (European Journal of Nuclear Medicine and Molecular Imaging, 2021)
Values joined by “and” are separate entries in the source; they are usually repeats but may differ in a detail not shown here. Equal entries are not always repeated. Where two headings read alike, the source gives them in different places. Where a SMILES comes first, the peptide text is derived from it. Bridges are numbered along the chain shown (N, C = ends). [ ]: non-standard residue; d: D form. The star is where a group is joined. DOTA = O=C(O)CN1CCN(CC(=O)O)CCN(CC(=O)*)CCN(CC(=O)O)CC1; dPhe(4-NHCONH2) = NC(=O)Nc1ccc(C[C@@H](N)C(=O)O)cc1; Phe(4-Cl) = N[C@@H](Cc1ccc(Cl)cc1)C(=O)O

Key:
AR42J tumor-bearing mice [1] = conditions: 2 h p.i., 1.0 nmol/mouse, ref Borgna et al., 2021 [11], cited from earlier work
in vivo = conditions: mouse, iv, total radioactivity
[2] = Early side effects: relative body weight, organ masses and mass ratios; assay type: in vivo, mice; conditions: at euthanasia
From the text: At the same time, relevant organs and tissues were collected, and the masses were put into relation to the brain mass of the respective mouse in order to allow the comparison of organ-to-brain and organ-to-body weight ratios among the single treatment groups (Supplementary Material).
Definition of relative body weight (RBW): The RBW was defined as [BWx/ BW0], where BWx is the body weight in gram at a given Day x and BW0 the body weight in gram at Day 0.

[3] = Early side effects: blood plasma chemistry; assay type: in vivo, mice; conditions: endpoint of the therapy
AR42J tumor-bearing mice [4] = test: Therapy study, therapeutic efficacy; conditions: for tumor growth delay: day 0 and day 7; for Time frame of euthanasia: end of study day 49
Experimental: The therapy study was initiated with mice randomly assigned to five groups (n = 6) when the AR42J tumors reached an average volume of 99 ± 16 mm^3. […] The endpoint criteria were defined according to a scoring system which required euthanasia of mice with a score ≥ 3 (Supplementary Material).
For the subsequent phase, in which the tumors started to regrow, the doubling time of the tumor volume was calculated based on the fitted exponential tumor growth curve. The average ± SD of tumor growth delay and of the doubling time of the tumor volume in single mice, respectively, were compared among groups with a one-way ANOVA with Tukey’s multiple comparisons post-test. The survival times of mice were presented by Kaplan–Meier curves and analyzed using a log-rank test (Mantel-Cox).
Definition of tumor volume (V) and relative tumor volume (RTV): The tumor dimension was determined by measuring the longest tumor axis (L) and its perpendicular axis (W) with a digital caliper. The tumor volume (TV) was calculated according to the equation [V = 0.5 × (L × W^2)]. The relative tumor volume (RTV) was defined as [TVx/TV0], where TVx is the tumor volume in mm^3 at a given Day x and TV0 the tumor volume in mm^3 at Day 0.
Scoring system: Endpoint criteria were defined using a scoring system which required euthanasia of mice with a score ≥3. Every second day, the following criteria were assessed in the mice, assigning a score from 0–3 for each criterion: (i) appearance (general status, skin color, etc.), (ii) behavior (vitality, sociality, crouching etc.), (iii) body weight (stable, loss >5 ≤10%, loss >10 <15%, loss ≥ 15% compared to initial body weight), (iv) tumor size (<800 mm^3, ≥800 and <900 mm^3, ≥900 and <1000 mm^3, ≥1000 mm^3), (v) tumor ulceration. A score ≥3 was for example due to: (i) appearance of wrinkled, translucent skin, (ii) mouse in crouching position and/or apathetic, (iii) a body weight loss of ≥15% of initial body weight, (iv) a tumor volume of ≥1000 mm^3, (iii/iv) a combination of a tumor size of ≥800 mm^3 and body weight loss of ≥10% and/or (v) ulceration of the tumor.

metastatic NENs = conditions: human, in vivo; cited from earlier work

SMILES	Organ mass Brain [2]	Organ mass Kidneys [2]	Organ mass Liver [2]	Organ mass Spleen [2]	ALB [3]	ALP [3]	BUN [3]	CRE [3]	TBIL [3]	tumor growth delay (AR42J tumor-bearing mice [4]; 2 × 10 MBq, 0.2 nmol)	Time frame of euthanasia (AR42J tumor-bearing mice [4]; 2 × 10 MBq, 0.2 nmol)	Median survival (AR42J tumor-bearing mice [4]; mouse, in vivo)	AR42J tumor uptake (AR42J tumor-bearing mice [1])	Adrenals uptake (AR42J tumor-bearing mice [1])	Blood uptake (AR42J tumor-bearing mice [1])	Femur uptake (AR42J tumor-bearing mice [1])	Heart uptake (AR42J tumor-bearing mice [1])	Intestines uptake (AR42J tumor-bearing mice [1])	Kidneys uptake (AR42J tumor-bearing mice [1])	Liver uptake (AR42J tumor-bearing mice [1])	further results
C[C@@H](O)[C@@H]1NC(=O)[C@H](CCCCN)NC(=O)[C@@H](Cc2ccc(NC(N)=O)cc2)NC(=O)[C@H](Cc2ccc(O)cc2)NC(=O)[C@H](NC(=O)[C@H](Cc2ccc(Cl)cc2)NC(=O)CN2CCN(CC(=O)O)CCN(CC(=O)O)CCN(CC(=O)O)CC2)CSSC[C@@H](C(=O)N[C@H](Cc2ccc(O)cc2)C(N)=O)NC1=O [DOTA-LM3]																					AR42J tumor uptake (AR42J tumor-bearing mice [1]; listed as [^161Tb]Tb/[^177Lu]Lu-DOTA-LM3): ~ 18 % IA/g
C[C@@H](O)[C@@H]1NC(=O)[C@H](CCCCN)NC(=O)[C@@H](Cc2c[nH]c3ccccc23)NC(=O)[C@H](Cc2ccc(O)cc2)NC(=O)[C@@H](NC(=O)[C@@H](Cc2ccccc2)NC(=O)CN2CCN(CC(=O)O)CCN(CC(=O)O)CCN(CC(=O)O)CC2)CSSC[C@@H](C(=O)N[C@H](CO)[C@@H](C)O)NC1=O [DOTATOC, DOTA-[Tyr^3]-octreotide]																					tissue uptake at 2 h (in vivo; AR42J tumor, 0.04 nmol/mouse): ~17 %ID/g; tissue uptake at 2 h (in vivo; AR42J tumor, 0.2 nmol/mouse): ~15 %ID/g; tissue uptake at 2 h (in vivo; liver): ~0.2 %ID/g; AR42J tumor uptake (AR42J tumor-bearing mice [1]; listed as [^161Tb]Tb-/[^177Lu]Lu-DOTATOC): ~ 8 % IA/g
C[C@@H](O)[C@@H]1NC(=O)[C@H](CCCCN)NC(=O)[C@@H](Cc2c[nH]c3ccccc23)NC(=O)[C@H](Cc2ccc(O)cc2)NC(=O)[C@@H](NC(=O)[C@@H](Cc2ccccc2)NC(=O)CN2CCN(CC(=O)O)CCN(CC(=O)O)CCN(CC(=O)O)CC2)CSSC[C@@H](C(=O)N[C@H](CO)[C@@H](C)O)NC1=O [[^161Tb]Tb-DOTATOC] [metal not drawn]	440 ± 23 mg	352 ± 27 mg	1195 ± 57 mg	86 ± 19 mg	23 ± 2 g/L	76 ± 21 U/L	5.8 ± 1.0 mmol/L	<18 (n=6) µmol/L	< 3 µmol/L and 4 ± 1 µmol/L	9.0 ± 5.5 days	20 to 26 days	21 days	8.2 ± 0.2 % IA/g	0.25 ± 0.06 % IA/g	≤0.10 % IA/g	≤0.10 % IA/g	≤0.10 % IA/g	0.21 ± 0.13 % IA/g	9.9 ± 1.3 % IA/g	0.17 ± 0.01 % IA/g	Lung uptake (AR42J tumor-bearing mice [1]): 0.27 ± 0.03 % IA/g; Muscle uptake (AR42J tumor-bearing mice [1]): ≤0.10 % IA/g; Pancreas uptake (AR42J tumor-bearing mice [1]): 0.71 ± 0.07 % IA/g; Spleen uptake (AR42J tumor-bearing mice [1]): 0.11 ± 0.02 % IA/g; Stomach uptake (AR42J tumor-bearing mice [1]): 0.74 ± 0.38 % IA/g
C[C@@H](O)[C@@H]1NC(=O)[C@H](CCCCN)NC(=O)[C@@H](Cc2ccc(NC(N)=O)cc2)NC(=O)[C@H](Cc2ccc(O)cc2)NC(=O)[C@H](NC(=O)[C@H](Cc2ccc(Cl)cc2)NC(=O)CN2CCN(CC(=O)O)CCN(CC(=O)O)CCN(CC(=O)O)CC2)CSSC[C@@H](C(=O)N[C@H](Cc2ccc(O)cc2)C(N)=O)NC1=O [[^177Lu]Lu-DOTA-LM3] [metal not drawn] ({DOTA}-[Phe(4-Cl)][dC]Y[dPhe(4-NHCONH2)]KTC[dY]-NH2; disulfide 2-7 (inferred); C-terminus assumed)	471 ± 30 mg	336 ± 13 mg	1254 ± 106 mg	92 ± 17 mg	23 ± 1 g/L	66 ± 5 U/L	8.2 ± 1.9 mmol/L and 8.2 ± 1.8 mmol/L	< 18 µmol/L and 19 µmol/L	< 3 µmol/L and 4 ± 1 µmol/L	35 ± 7 days		48.5 days									tolerability in patients (metastatic NENs): well tolerated; tumor doses compared to [177Lu]Lu-DOTATOC (metastatic NENs): higher tumor doses; mice with exponential tumor regrowth (AR42J tumor-bearing mice [4]; after the growth delay): 5 out of 6; mice surviving until the end of the study (AR42J tumor-bearing mice [4]; mouse, in vivo): three out of six mice; doubling time of the tumor volume (AR42J tumor-bearing mice [4]; regrowth phase, 2 × 10 MBq, 0.2 nmol): 3.8 ± 1.1 days
C[C@@H](O)[C@@H]1NC(=O)[C@H](CCCCN)NC(=O)[C@@H](Cc2c[nH]c3ccccc23)NC(=O)[C@H](Cc2ccc(O)cc2)NC(=O)[C@@H](NC(=O)[C@@H](Cc2ccccc2)NC(=O)CN2CCN(CC(=O)O)CCN(CC(=O)O)CCN(CC(=O)O)CC2)CSSC[C@@H](C(=O)N[C@H](CO)[C@@H](C)O)NC1=O [[^177Lu]Lu-DOTATOC] [metal not drawn]	453 ± 31 mg	342 ± 23 mg	1121 ± 123 mg	90 ± 17 mg	24 ± 5 g/L	77 ± 8 U/L	6.3 ± 0.9 mmol/L	<18 (n=5) µmol/L	< 3 µmol/L and 4 ± 1 µmol/L	6.0 ± 4.4 days and 6 ± 4 days	12 to 22 days	19.5 days	8.9 ± 1.5 % IA/g	0.28 ± 0.08 % IA/g	≤0.10 % IA/g	≤0.10 % IA/g	≤0.10 % IA/g	0.20 ± 0.05 % IA/g	11 ± 1 % IA/g	0.26 ± 0.07 % IA/g	Lung uptake (AR42J tumor-bearing mice [1]): 0.37 ± 0.06 % IA/g; Muscle uptake (AR42J tumor-bearing mice [1]): ≤0.10 % IA/g; Pancreas uptake (AR42J tumor-bearing mice [1]): 0.80 ± 0.13 % IA/g; Spleen uptake (AR42J tumor-bearing mice [1]): 0.15 ± 0.03 % IA/g; Stomach uptake (AR42J tumor-bearing mice [1]): 0.65 ± 0.11 % IA/g
